# Values of other authors in US11364228B2 (Ovid Therapeutics Inc., priority 2019, dated 2022).
# Experiments:
# [1] = tested on: sleep onset and sleep maintenance; details: three-month efficacy study, treatment of insomnia
# [2] = tested on: patients with a history of drug abuse; details: patients with a history of drug abuse who received gaboxadol
# [3] = conventional pharmaceutical compositions such as tablets and capsules
structure (smiles),measurement,setting,value
"Oc1noc2c1CCNC2 [Gaboxadol, 4,5,6,7-tetrahydroisoxazolo [5,4-c]pyridine-3-ol]",effects in sleep onset and sleep maintenance,[1],failed to show significant effects
same,half-life,[3],1.5 to 2 h
same,time to reach peak concentration,[3],≤ 30 min
same,half-life (t1/2),plasma half-life post administration,1.5 to 2 h
same,psychiatric adverse events,[2],steep increase in psychiatric adverse events
